The source of these data is US6017511A, “Glycopeptide-chelator conjugates” (Resolution Pharmaceuticals Inc., priority 1997, dated 2000).

For one assay, the system named is E. coli (ATCC 25922). Kind of assay: Filter binding assay of Tc-99m-labelled conjugates. Particulars: Tc-99m-labelled conjugate, 37° C.
Another assay relates to C. albicans (ATCC 14053). Kind of assay: Filter binding assay of Tc-99m-labelled conjugates. Particulars: Tc-99m-labelled conjugate.
The next assay concerns S. aureus (ATCC 25923). Kind of assay: Filter binding assay of Tc-99m-labelled conjugates. The following applies: Tc-99m-labelled conjugate, 37° C.
Assay [1] is described as follows: Filter binding assay of Tc-99m-labelled conjugates. Particulars: Tc-99m-labelled conjugate, zymosan suspension 50 mg/mL.
Description: (§6) *Note: C. albicans has a longer growth cycle than the other microorganisms and, therefore, the culture is incubated for 2 days. Also, the optimum growth temperature for C. albicans is 30° C.
The flasks are incubated in a shaking water bath (200 rpm) at 37° C. A 10 mL zymosan suspension at 50 mg/mL and a 0.5% carrageenan mixture are also made. There is also a background which is a flask containing broth with no microorganism and to which the radioactivity is also added. At various time intervals, 200 mL of the cultures, suspensions, and the background is removed and filtered through 25 mm diam., 22 mm, cellulose acetate/nitrate, membrane filters (Millipore) using a Millipore vacuum manifold. The filters are washed 3× with 1 mL PBS. The filters are then assayed for radioactivity using a gamma well counter (Cobra II; Canberra Packard). The time intervals at which the cultures are sampled are: […]
In the next assay the test system is E. coli. Kind of assay: Antimicrobial assay. It counts as cell-based. The following applies: up to 64 mg/mL. The method, then: (§1) Fresh cultures of bacteria are made from frozen stock stored at -80° C. To inoculate a fresh culture, the stock is removed from the freezer and continually kept frozen by being placed on dry ice. A small amount is removed using a sterile wooden applicator and transferred to a 50 mL culture flask, with screw cap, containing 10 mL of broth medium. The culture is incubated at 37° C. on an orbital shaker at 200 rpm overnight. The various bacteria and broth media used are:
(§2) The following day, the cultures are subcultured by transferring […] (O.D. dependent) to a new culture flask containing 20 mL broth. The subcultures are incubated at 37° C. on a shaker (200 rpm) and the bacteria are allowed to grow to mid-log phase. This is usually around 1×10^8 cfu/mL, determined by measuring the O.D. of the subculture. The correlation between O.D. and growth of each bacteria has been previously established.
(§3) Once the proper O.D. has been obtained, a 200- or 400-fold dilution is made of the subculture and 1 mL of this dilution is added to 1 mL of compound or antibiotic (i.e. 2-fold dilution) to give a final concentration of 0, 2, 4, 8, 16, 32, and 64 mg/mL compound or antibiotic. A 100-fold dilution is made from the control culture (0 mg/mL) and […] samples (i.e. 1000-fold dilution) are plated onto a TSA (tryptic soy agar; Difco). The cultures are incubated overnight at 37° C. on an orbital shaker (200 rpm). The TSA plates are also incubated overnight at 37° C.
(§4) The following day, the cultures are examined for growth or turbidity. […] samples (i.e. 10-fold dilution) of any of the cultures showing no turbidity, i.e. no growth, are plated onto TSA. The plates are incubated overnight at 37° C. and the number of cfu, if any, are counted. The control TSA plates are counted for the number of cfu for comparison with the culture plates.
(§5) MIC (minimal inhibitory concentration) is determined to be the lowest concentration at which growth of the bacteria is arrested. MBC (minimal bactericidal concentration) is determined to be the lowest concentration at which the bacteria are being killed.

Another assay has as its system P. aeruginosa. Kind of assay: Antimicrobial assay. Format: cell-based. The following applies: up to 64 mg/mL. The method, then:
as §1, §2, §3, §4, §5

Another assay has as its system S. aureus. The assay is described as follows: microbe, parasite or virus in culture. Format: cell-based. Particulars: for antimicrobial activity at the concentrations tested: S. aureus, up to 64 mg/mL. The protocol:
as §1, §2, §3, §4, §5

In assay [2] the test system is P. aeruginosa (ATCC PAO-PR1). The assay is described as follows: Filter binding assay of Tc-99m-labelled conjugates. Particulars: Tc-99m-labelled conjugate, 37° C. The method, then:
Frozen cultures of bacteria are stored in vials at -80° C. until use. To inoculate a fresh bacterial culture, the vial of bacteria is removed from the freezer and continually kept frozen by being placed on dry ice. A small amount is removed using a sterile wooden applicator and transferred to a 50 mL culture flask, with screw cap, containing 10 mL of broth medium. The culture is incubated at 37° C. on a shaker at 200 rpm overnight*. The various microorganisms or compounds and broth media used are:
P. aeruginosa (ATCC PAO-PR1)→TSB
The cultures are then subcultured by removing […] of the culture (O.D. dependent) and transferring to a 50 mL culture flask containing 20 mL broth. The subcultures are incubated at 37° C. or 30° C. until a growth concentration of 10^8 cfu (colony forming unit)/mL is reached. The concentration of each microorganism is determined by reading the optical density (O.D.) of the subculture using a spectrophotometer. […]
Once the proper O.D. has been reached, 10 mL of the subculture is transferred to a 15 mL culture flask and 1×10^6 cpm of Tc-99m-labelled compound is added. […] There is also a background which is a flask containing broth with no microorganism and to which the radioactivity is also added. […] The filters are then assayed for radioactivity using a gamma well counter (Cobra II; Canberra Packard). […]

Converted amounts (≈) assume the structure as drawn.

Description for C. albicans (ATCC 14053): as §6
C. albicans (ATCC 14053)→YM Broth (YMB; Difco)
The cultures are then subcultured by removing 50-150 mL of the culture (O.D. dependent) and transferring to a 50 mL culture flask containing 20 mL broth. […] The concentration of each microorganism is determined by reading the optical density (O.D.) of the subculture using a spectrophotometer.
(§7) The flasks are incubated in a shaking water bath (200 rpm) at 37° C. […] There is also a background which is a flask containing broth with no microorganism and to which the radioactivity is also added. […] The filters are then assayed for radioactivity using a gamma well counter (Cobra II; Canberra Packard). […]
Description for E. coli (ATCC 25922): E. coli (ATCC 25922)→Tryptic Soy Broth (TSB; Difco)
(§8) The cultures are then subcultured by removing 50-150 mL of the culture (O.D. dependent) and transferring to a 50 mL culture flask containing 20 mL broth. The subcultures are incubated at 37° C. or 30° C. until a growth concentration of 10^8 cfu (colony forming unit)/mL is reached. The concentration of each microorganism is determined by reading the optical density (O.D.) of the subculture using a spectrophotometer. The correlation between O.D. and growth of each microorganism has been previously established.
as §7
Description for S. aureus (ATCC 25923): S. aureus (ATCC 25923)→TSB
as §8, §7

Turning to “DimethylGly-Ser-Cys(Acm)-(βAla)3 -Lys(N^ε -Vancomycin)-Gly-OH [(IB)]”, in the assay with E. coli (ATCC 25922), the “Filter Binding Assay Results at 2 h, E. coli” value stood at 18%. The “Filter Binding Assay Results at 2 h, C. albicans” value with C. albicans (ATCC 14053) turned out to be 5%. In the assay on S. aureus (ATCC 25923), the “Filter Binding Assay Results at 2 h, S. aureus” value was determined as 22%. Moreover, in assay [1], the “Filter Binding Assay Results at 2 h, Zymosan” value stood at 42%.
On to `CN[C@H](CC(C)C)C(=O)N[C@H]1C(=O)N[C@@H](CC(N)=O)C(=O)N[C@H]2C(=O)N[C@H]3C(=O)N[C@H](C(=O)N[C@H](C(=O)O)c4cc(O)cc(O)c4-c4cc3ccc4O)[C@H](O)c3ccc(c(Cl)c3)Oc3cc2cc(c3O[C@@H]2O[C@H](CO)[C@@H](O)[C@H](O)[C@H]2O[C@H]2C[C@](C)(N)[C@H](O)[C@H](C)O2)Oc2ccc(cc2Cl)[C@H]1O` [Vancomycin, reference compound], for which the “antimicrobial activity at the concentrations tested” value (“antimicrobial activity” below) with E. coli, with P. aeruginosa and in the assay with S. aureus was “antimicrobial against only S. aureus” throughout. In the assay on S. aureus (Staphylococcus aureus, read-out: MBC (minimal bactericidal concentration)), the MBC is 32 to 64 mg/mL (≈ 22.1 to 44.2 mM).
With `CN[C@H](CC(C)C)C(=O)N[C@H]1C(=O)N[C@@H](CC(N)=O)C(=O)N[C@H]2C(=O)N[C@H]3C(=O)N[C@H](C(=O)N[C@H](C(=O)NCCCNC(=O)CNC(=O)C(CSCNC(C)=O)NC(=O)C(CO)NC(=O)CN(C)C)c4cc(O)cc(O)c4-c4cc3ccc4O)[C@H](O)c3ccc(c(Cl)c3)Oc3cc2cc(c3O[C@@H]2O[C@H](CO)[C@@H](O)[C@H](O)[C@H]2O[C@H]2C[C@](C)(N)[C@H](O)[C@H](C)O2)Oc2ccc(cc2Cl)[C@H]1O` (stereo partly drawn) [(IA), DimethylGly-Ser-Cys(Acm)-Gly-NH(CH2)3 NH-Vancomycin], the “Filter Binding Assay Results at 2 h, E. coli” value with E. coli (ATCC 25922) is listed as 31%. The “Filter Binding Assay Results at 2 h, C. albicans” value with C. albicans (ATCC 14053) was determined as 21%. In addition, in the assay with E. coli, the “antimicrobial activity” value is given as “antimicrobial against only S. aureus”. Besides, in the assay with P. aeruginosa, the “antimicrobial activity” value is reported as “antimicrobial against only S. aureus”. Moreover, the “Filter Binding Assay Results at 2 h, P. aeruginosa” value in assay [2] is reported as 25%. For the same compound, in the assay with S. aureus, the “MBC (minimal bactericidal concentration)” value turned out to be 32 mg/mL (≈ 16.8 mM), the “MIC (minimal inhibitory concentration)” value was 16 to 32 mg/mL and the “antimicrobial activity” value is listed as “antimicrobial against only S. aureus”. In the assay on S. aureus (ATCC 25923), the “Filter Binding Assay Results at 2 h, S. aureus” value is given as 48%. The “Filter Binding Assay Results at 2 h, Zymosan” value in assay [1] worked out at 35%.
